For this assay, the system named is C57BL/6N male mice fed high-fat diet. Briefly: Hepatic triglyceride levels in C57BL/6N male mice receiving a high-fat diet. In kind it is in vivo. The following applies: 3 weeks HFD, compound as diet admix 289 mg/kg HFD (~30 mg/kg/day) for final 2 weeks, 4-hour fast, group mean, HFD alone 1.6, NC 0.6. The procedure: An assay was performed to determine the effect of administering Compounds A and B to C57BL/6N male mice receiving a high-fat diet.
C57BL/6N male mice were obtained from Charles River Laboratories (Montreal, QC, Canada) at 11 weeks of age and singly housed on alpha-dri paper bedding on a normal 12 hour, 6 am-6 pm light-dark cycle. Upon arrival, 27 mice were fed D12492 high fat diets (HFD) containing 60% kcal fat while 9 mice were fed D12450K normal chow diet (NC) for 1 week with free access to water. Mice that had been fed D12492 were allocated into three equally distributed treatment arms of 9 mice each at 12 weeks of age based on 4-hour fasted blood glucose and body weight. […]
Following a 4-hour fast, mice were euthanized and a random lobe of liver was flash frozen in liquid nitrogen for subsequent hepatic lipid analysis. […] A 10 μL aliquot of the prepared sample was injected into the HPLC-ELSD system utilizing a Spherisorb® S5W Silica gel 5 μm, 100×4.6 mm ID HPLC column (Waters) running a 99:1 isooctane:tetrahydrofuran (mobile phase A), 2:1 acetone:CH2Cl2 (mobile phase B), 85:15 isopropanol:7.5 mM acetic acid/7.5 mM ethanolamine (mobile phase C) gradient before being detected using evaporative light scattering detection (ELSD) on an SEDEX® 75 detector (Sedere, Inc., Lawrenceville, N.J.). […]

The results in this text go back to patent publication US20170209402A1, “CARBOXY-CYCLOPROPYL UNDECANOL COMPOUNDS FOR TREATMENT OF LIVER DISEASE AND OTHER MEDICAL DISORDERS” (Esperion Therapeutics, Inc., priority 2014, published 2017).

As for `O=C(O)C1(CCCCCC(O)CCCCCC2(C(=O)O)CC2)CC1` [Compound A, 1,11-bis-(1-carboxy-cyclopropyl)-undecan-6-ol], the “Hepatic TG” value came to 0.6 % w/w.
To `CC(C)(CCCCCC(O)CCCCCC(C)(C)C(=O)O)C(=O)O` [Compound B] belongs 1.1 % w/w.
